Results from ChEMBL document CHEMBL5678818, “Discovery of potent SOS1 inhibitors that block RAS activation via disruption of the RAS-SOS1 interaction” (Proc Natl Acad Sci U S A, 2019).

What was measured:
[1] = molecular target: Serine/threonine-protein kinase WNK3 (Homo sapiens) (UniProt Q9BYP7); assay: Inhibition of WNK3 (unknown origin) assessed as residual activity at 1000 nM by KINOMEscan analysis relative to control
[2] = molecular target: RAC-gamma serine/threonine-protein kinase (Homo sapiens) (UniProt Q9Y243); assay: Inhibition of AKT3 (unknown origin) assessed as residual activity at 1000 nM by KINOMEscan analysis relative to control
MOLM-13 = assay: Antiproliferative activity against human MOLM-13 cells assessed as inhibition of cell viability incubated for 72 hrs by Cell Titer Glo assay; type: functional, cell-based; details: MOLM-13, 72 h
[3] = molecular target: T1, Guanine nucleotide exchange factor DBS (Homo sapiens, UniProt O15068); assay: Inhibition of human DBS assessed as reduction in CDC42 activation preincubated for 1 min with CDC42 followed by DBS addition measured after 20 mins in presence of EDA-GTP-DY-647P1 by HTRF analysis
T1 sequence (O15068 whole entry): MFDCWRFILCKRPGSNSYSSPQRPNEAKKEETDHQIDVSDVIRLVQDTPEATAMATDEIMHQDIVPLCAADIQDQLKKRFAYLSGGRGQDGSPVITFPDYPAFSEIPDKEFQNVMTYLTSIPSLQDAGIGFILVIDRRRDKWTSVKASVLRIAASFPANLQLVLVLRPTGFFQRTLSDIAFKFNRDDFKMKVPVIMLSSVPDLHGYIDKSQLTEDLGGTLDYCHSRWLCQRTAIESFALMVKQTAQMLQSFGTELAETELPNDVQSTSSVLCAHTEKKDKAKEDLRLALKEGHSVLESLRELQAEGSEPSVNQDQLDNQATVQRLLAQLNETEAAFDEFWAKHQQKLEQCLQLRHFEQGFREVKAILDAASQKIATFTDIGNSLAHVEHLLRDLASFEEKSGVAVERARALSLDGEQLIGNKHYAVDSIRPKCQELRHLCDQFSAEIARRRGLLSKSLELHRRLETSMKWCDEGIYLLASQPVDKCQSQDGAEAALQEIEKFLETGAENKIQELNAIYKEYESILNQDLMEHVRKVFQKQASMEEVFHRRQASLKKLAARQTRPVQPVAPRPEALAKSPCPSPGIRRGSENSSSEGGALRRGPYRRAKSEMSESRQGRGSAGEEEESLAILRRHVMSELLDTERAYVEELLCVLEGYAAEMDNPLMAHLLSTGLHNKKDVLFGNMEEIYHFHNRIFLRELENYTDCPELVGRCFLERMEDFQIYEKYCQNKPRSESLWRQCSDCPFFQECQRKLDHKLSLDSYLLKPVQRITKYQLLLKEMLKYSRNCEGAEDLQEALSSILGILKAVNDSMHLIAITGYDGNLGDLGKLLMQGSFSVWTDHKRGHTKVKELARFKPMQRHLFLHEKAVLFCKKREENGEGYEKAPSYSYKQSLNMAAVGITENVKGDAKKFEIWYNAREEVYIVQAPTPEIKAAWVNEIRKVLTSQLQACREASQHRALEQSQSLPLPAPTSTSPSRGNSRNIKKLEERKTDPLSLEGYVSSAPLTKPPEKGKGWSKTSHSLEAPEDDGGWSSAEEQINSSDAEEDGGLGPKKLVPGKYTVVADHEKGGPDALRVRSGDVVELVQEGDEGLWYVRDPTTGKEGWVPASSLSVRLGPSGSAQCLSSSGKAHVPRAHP

[4] = molecular target: T2, Mitogen-activated protein kinase kinase kinase 19 (Homo sapiens) (UniProt Q56UN5); assay: Inhibition of YSK4 (unknown origin) assessed as residual activity at 1000 nM by KINOMEscan analysis relative to control
T2 sequence (whole entry): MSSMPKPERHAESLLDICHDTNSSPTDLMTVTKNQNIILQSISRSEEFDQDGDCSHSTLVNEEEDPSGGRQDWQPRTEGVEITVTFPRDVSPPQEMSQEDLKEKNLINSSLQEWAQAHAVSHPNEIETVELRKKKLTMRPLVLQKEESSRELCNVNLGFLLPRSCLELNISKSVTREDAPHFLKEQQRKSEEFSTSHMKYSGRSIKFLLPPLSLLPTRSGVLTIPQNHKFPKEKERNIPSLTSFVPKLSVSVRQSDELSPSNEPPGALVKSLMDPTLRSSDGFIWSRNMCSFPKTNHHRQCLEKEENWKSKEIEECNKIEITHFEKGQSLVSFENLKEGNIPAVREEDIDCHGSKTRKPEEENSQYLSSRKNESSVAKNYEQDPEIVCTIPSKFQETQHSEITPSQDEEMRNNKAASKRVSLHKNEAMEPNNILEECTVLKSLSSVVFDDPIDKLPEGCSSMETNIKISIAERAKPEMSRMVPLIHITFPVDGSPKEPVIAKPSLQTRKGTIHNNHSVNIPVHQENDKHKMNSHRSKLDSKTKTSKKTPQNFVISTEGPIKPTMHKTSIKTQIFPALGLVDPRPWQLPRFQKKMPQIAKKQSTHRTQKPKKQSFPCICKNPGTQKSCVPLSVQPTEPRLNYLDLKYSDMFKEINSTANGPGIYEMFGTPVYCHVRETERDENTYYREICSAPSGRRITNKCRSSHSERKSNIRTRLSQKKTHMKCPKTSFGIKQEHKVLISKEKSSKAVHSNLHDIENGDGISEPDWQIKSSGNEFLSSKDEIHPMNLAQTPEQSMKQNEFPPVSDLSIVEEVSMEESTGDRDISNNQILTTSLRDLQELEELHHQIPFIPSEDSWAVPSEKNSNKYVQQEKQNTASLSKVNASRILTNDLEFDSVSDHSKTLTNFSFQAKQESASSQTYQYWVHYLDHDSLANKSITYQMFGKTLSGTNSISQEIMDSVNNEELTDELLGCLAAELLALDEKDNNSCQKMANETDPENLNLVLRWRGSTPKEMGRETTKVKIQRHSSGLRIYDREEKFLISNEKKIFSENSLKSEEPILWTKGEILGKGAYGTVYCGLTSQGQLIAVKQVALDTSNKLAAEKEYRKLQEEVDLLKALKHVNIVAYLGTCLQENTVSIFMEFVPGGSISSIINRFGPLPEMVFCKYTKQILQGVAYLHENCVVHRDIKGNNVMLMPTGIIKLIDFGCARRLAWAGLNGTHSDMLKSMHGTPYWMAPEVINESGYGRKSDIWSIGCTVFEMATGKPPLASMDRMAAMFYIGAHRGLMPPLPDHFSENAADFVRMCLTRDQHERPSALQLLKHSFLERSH

[5] = molecular target: Epidermal growth factor receptor (Homo sapiens, UniProt P00533); assay: Inhibition of human EGFR using biotin-aminohexyl-AEEEEYFELVAKKK as substrate preincubated for 15 mins followed by substrate/ATP addition measured after 20 mins by FRET assay
[6] = molecular target: Son of sevenless homolog 2 (Homo sapiens, UniProt Q07890); assay: Inhibition of N-terminal His10-tagged wild-type recombinant human SOS2 catalytic domain (564 to 1043 residues) expressed in Escherichia coli assessed as reduction in KRAS G12C mutant activation preincubated for 10 mins with KRAS followed by SOS2 addition measured after 30 mins in presence of EDA-GTP-DY-647P1 by HTRF analysis
Sequence of Son of sevenless homolog 2 (Q07890 whole entry, looked up, stated change not applied, the tested form may be a part): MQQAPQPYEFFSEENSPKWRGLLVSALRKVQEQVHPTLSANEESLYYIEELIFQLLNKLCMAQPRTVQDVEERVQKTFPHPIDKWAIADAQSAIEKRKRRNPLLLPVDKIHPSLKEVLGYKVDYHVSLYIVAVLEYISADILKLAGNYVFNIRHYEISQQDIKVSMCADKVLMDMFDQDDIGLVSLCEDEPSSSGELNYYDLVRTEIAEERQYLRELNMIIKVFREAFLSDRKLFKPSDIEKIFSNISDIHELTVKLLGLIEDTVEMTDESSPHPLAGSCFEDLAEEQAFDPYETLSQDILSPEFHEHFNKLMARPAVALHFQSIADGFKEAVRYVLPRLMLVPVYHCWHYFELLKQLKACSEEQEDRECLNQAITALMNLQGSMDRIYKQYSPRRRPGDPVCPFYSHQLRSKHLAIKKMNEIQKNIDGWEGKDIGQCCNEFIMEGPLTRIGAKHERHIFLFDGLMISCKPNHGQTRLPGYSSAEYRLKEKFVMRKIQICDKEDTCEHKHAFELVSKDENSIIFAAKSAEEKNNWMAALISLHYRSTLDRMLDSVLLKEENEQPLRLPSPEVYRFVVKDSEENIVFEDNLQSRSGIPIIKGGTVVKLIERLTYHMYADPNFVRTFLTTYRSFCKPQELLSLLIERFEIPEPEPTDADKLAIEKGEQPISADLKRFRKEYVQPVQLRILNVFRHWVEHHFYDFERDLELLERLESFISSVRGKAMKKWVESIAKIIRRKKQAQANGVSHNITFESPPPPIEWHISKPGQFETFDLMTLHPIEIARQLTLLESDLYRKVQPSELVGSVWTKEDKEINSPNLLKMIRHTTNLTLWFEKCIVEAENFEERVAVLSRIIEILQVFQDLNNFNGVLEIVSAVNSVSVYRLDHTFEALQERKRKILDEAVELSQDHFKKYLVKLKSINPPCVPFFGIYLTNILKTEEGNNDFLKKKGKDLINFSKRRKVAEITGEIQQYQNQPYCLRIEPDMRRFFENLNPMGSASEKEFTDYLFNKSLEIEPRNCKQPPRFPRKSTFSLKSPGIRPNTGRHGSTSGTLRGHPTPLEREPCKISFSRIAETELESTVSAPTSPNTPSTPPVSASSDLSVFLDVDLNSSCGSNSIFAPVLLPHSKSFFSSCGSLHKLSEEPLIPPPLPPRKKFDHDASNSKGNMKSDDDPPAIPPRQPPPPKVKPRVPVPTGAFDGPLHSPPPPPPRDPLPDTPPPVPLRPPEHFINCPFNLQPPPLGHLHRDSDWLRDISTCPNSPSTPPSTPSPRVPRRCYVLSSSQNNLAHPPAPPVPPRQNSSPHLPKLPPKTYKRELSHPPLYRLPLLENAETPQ

Sequence of Epidermal growth factor receptor (P00533 whole entry, the tested form may be a part): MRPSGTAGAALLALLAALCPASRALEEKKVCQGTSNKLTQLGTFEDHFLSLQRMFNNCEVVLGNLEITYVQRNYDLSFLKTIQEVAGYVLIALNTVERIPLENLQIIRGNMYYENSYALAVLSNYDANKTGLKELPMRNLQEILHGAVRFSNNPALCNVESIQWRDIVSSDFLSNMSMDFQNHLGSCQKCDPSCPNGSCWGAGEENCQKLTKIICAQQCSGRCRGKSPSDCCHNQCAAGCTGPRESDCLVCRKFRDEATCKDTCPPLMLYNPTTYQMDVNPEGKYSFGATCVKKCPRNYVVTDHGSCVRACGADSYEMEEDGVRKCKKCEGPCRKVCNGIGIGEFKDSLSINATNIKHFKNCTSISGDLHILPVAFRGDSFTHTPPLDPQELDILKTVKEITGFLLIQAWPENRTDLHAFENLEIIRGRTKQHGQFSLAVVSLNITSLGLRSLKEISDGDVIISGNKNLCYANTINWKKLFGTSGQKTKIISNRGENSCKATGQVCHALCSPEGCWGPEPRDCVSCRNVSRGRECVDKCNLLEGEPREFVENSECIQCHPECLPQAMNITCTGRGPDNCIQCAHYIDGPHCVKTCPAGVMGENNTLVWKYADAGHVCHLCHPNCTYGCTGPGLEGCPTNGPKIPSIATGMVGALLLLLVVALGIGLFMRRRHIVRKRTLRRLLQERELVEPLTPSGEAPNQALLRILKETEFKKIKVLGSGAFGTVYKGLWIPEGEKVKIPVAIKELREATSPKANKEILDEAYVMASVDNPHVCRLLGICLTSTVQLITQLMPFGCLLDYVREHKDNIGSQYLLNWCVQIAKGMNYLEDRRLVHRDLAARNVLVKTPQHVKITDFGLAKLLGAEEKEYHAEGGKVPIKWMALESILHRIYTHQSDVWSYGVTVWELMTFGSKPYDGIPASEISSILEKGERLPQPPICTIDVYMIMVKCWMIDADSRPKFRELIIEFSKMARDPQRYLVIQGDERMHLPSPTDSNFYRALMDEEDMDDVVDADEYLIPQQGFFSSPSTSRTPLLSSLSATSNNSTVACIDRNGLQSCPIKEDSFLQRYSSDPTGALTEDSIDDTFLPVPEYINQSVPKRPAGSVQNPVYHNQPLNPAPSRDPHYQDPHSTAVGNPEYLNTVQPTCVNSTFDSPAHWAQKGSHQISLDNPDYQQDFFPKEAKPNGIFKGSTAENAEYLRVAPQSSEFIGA
Sequence of Serine/threonine-protein kinase WNK3 (Homo sapiens) (Q9BYP7 whole entry): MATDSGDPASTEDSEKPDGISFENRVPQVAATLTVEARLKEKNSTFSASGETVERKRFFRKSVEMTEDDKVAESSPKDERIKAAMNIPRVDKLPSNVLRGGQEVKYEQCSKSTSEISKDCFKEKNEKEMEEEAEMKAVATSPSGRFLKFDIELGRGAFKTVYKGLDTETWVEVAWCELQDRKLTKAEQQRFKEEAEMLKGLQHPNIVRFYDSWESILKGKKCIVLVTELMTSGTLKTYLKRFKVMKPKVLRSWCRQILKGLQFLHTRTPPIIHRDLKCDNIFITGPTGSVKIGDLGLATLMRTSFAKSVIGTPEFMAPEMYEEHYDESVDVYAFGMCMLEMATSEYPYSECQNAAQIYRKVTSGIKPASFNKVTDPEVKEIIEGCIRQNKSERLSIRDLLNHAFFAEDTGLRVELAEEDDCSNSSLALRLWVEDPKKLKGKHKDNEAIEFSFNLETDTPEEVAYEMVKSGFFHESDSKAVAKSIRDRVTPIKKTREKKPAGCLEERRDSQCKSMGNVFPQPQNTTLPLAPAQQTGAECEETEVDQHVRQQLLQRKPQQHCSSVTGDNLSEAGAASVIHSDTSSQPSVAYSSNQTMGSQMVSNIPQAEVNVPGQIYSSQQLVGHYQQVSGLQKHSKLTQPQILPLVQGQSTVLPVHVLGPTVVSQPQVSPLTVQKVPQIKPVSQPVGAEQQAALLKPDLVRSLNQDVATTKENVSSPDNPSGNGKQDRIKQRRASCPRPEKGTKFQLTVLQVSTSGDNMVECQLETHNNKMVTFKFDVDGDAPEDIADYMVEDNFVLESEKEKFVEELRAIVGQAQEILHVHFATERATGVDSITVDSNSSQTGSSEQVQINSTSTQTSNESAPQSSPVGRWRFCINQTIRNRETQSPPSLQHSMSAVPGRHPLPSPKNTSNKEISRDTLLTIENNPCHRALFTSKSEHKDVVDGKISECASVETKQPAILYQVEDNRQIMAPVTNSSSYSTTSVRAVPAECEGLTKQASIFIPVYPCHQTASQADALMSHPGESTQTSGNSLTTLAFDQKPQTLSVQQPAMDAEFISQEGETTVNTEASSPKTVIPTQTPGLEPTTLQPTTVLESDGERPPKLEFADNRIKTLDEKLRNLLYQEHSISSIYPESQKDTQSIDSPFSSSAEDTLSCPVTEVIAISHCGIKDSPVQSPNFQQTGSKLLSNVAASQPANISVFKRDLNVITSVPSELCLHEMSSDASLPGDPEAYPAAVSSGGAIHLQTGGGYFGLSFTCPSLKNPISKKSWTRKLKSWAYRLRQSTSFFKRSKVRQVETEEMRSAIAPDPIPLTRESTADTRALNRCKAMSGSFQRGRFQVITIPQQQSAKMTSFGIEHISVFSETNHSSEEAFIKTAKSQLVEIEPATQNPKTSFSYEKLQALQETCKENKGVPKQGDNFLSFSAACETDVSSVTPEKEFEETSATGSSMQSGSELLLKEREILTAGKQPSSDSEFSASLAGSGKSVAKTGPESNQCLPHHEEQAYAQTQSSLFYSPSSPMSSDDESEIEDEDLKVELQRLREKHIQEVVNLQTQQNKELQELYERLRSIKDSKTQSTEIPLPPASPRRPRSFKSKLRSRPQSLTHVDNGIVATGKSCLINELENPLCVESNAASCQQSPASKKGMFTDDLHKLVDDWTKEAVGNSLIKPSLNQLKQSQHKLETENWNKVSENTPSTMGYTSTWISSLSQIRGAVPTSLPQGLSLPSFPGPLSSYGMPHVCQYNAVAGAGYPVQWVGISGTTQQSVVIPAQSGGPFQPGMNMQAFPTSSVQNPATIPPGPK
Sequence of RAC-gamma serine/threonine-protein kinase (Homo sapiens) (Q9Y243 whole entry): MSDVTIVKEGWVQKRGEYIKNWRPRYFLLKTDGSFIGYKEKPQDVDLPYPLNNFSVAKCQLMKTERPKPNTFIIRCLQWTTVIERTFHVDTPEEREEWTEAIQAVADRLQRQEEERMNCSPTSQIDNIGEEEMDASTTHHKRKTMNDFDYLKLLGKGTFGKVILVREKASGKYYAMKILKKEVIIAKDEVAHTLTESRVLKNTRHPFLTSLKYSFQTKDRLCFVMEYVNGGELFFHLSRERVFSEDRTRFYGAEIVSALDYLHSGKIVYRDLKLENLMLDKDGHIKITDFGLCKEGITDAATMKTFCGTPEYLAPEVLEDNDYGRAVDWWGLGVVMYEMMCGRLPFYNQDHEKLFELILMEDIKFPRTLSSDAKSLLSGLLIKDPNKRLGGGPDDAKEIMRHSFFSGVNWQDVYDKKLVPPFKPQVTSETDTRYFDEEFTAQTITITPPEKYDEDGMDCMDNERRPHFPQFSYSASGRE

In the case of `COc1cc2nc(C)nc(N[C@H](C)c3cccc(-c4cn[nH]c4)c3)c2cc1OC`, the Activity [1] is reported as 93%, the Activity [2] is reported as 84% and the IC50 (MOLM-13) is reported as 3.54 µM. For the same compound, the IC50 [3] was over 20 µM, the Activity [4] was 84% and the IC50 [5] was over 20 µM. The IC50 [6] was over 20 µM.

`CNCc1ccccc1-c1csc([C@@H](C)Nc2nc(C)nc3cc(OC)c(OC)cc23)c1` [BAY-293] was tested, and the IC50 (MOLM-13) was 0.995 µM, the IC50 [3] was over 20 µM and the IC50 [5] was over 20 µM. The IC50 [6] was over 20 µM.

`COc1cc2ncnc(N[C@H](C)c3cccc4ccccc34)c2cc1OC` gave an Activity [1] of 99%, an Activity [2] of 100% and an IC50 (MOLM-13) of 2.53 µM. For the same compound, the IC50 [3] was over 20 µM, the Activity [4] was 90% and the IC50 [5] was 0.58 µM. For the same compound, the IC50 [6] was over 20 µM.
